Values of other authors, collected in US20060122127A1, “Methods for reducing the side effects associated with mirtzapine treatment” (Cypress Bioscience, Inc., priority 2004, published 2006).

Tests used:
[1] = system: tonic extension seizures induced by maximal electroshock; details: animals
[2] = obese patients
[3] = 100-200 mg/d, patients with neuropathic pain
[4] = system: clonic seizures induced by subcutaneous pentylenetetrazol; details: animals

| SMILES | patients with weight gain of greater than or equal to 7% of body weight (controlled studies (placebo 0%)) [%] | patients reporting appetite increase (controlled studies (placebo 2%)) [%] | anticonvulsant activity against tonic extension seizures [1] | loss of body weight ([2]; 32 week extension phase (placebo 1.8% loss)) [%] | reduction of body weight ([2]; following 16 weeks of therapy (placebo 1% loss)) [%] | patients whose subjective ratings of pain improved by at least 50% [3] [%] | anticonvulsant activity against clonic seizures [4] |
| --- | --- | --- | --- | --- | --- | --- | --- |
| CN(C)CCC=C1c2ccccc2CCc2ccccc21 [amitriptyline] | 5.9 | 6 |  |  |  |  |  |
| NS(=O)(=O)Cc1noc2ccccc12 [zonisamide, 1,2-benzisoxazole-3-methanesulfonamide] |  |  | effective | 9.4 | 6 | 59 | ineffective |
